Data set [1] concerns Aβ40 in conditioned medium of cells stably expressing Amyloid Precursor Protein (APP). Kind of data set: In vitro BACE cell-based assay (HEK cell assay, Aβ40 sandwich ELISA). The note with it: Homo sapiens, HEK293; average IC50, Aβ40, 24 h incubation. Here is the method:
In Vitro BACE Cell-Based Assay
The cell-based assay measures inhibition or reduction of Aβ40 in conditioned medium of test compound treated cells expressing amyloid precursor protein.
Cells stably expressing Amyloid Precursor Protein (APP) were plated at a density of 40K cells/well in 96 well plates (Costar). The cells were cultivated for 24 hours at 37° C. and 5% CO2 in DMEM supplemented with 10% FBS. The test compounds were then added to cells in 10-point dose response concentrations with the starting concentration being either 100 μM or 10 μM. The compounds were diluted from stock solutions in DMSO and the final DMSO concentration of the test compounds on cells was 0.1%. After 24 h of incubation with the test compounds the supernatant conditioned media was collected and the Aβ 40 levels were determined using a sandwich ELISA. The IC50 of the compound was calculated from the percent of control or percent inhibition of Aβ 40 as a function of the concentration of the test compound.
The sandwich ELISA to detect Aβ 40 was performed in 96 well microtiter plates, which were pre-treated with goat anti-rabbit IgG (Pierce). The capture and detecting antibody pair that were used to detect Aβ 40 from cell supernatants were affinity purified pAb40 (Biosource) and biotinylated 6E10 (Signet Labs Inc.), respectively. The optimal concentration for the pAb40 antibody was 3 μg/ml in Superblock/TBS (Pierce) that was supplemented with 0.05% Tween 20 (Sigma). Optimal concentration for the detection antibody 6E10-biotinylated was 0.5 μg/ml in Superblock/TBS (Pierce) that had been supplemented with 2% normal goat serum and 2% normal mouse serum.
Cellular supernatants were incubated with the capture antibody for 3 h at 4° C., followed by 3 wash steps in TBS-tween (0.05%). The detecting antibody incubation was for 2 h at 4° C., again followed by the wash steps as described previously. The final readout of the ELISA is Time-Resolved Fluorescence (counts per minute) using Delfia reagents Streptavidin-Europium and Enhancement solutions (Perkin Elmer) and the Victor 2 multilabel counter (Perkin Elmer).

For another data set, the system named is Abeta 40. Kind of data set: In vivo inhibition of beta-secretase: Abeta 40 reduction in rat CSF and brain. The note with it: after 4 hrs; for % reduction of rat CSF Abeta 40 levels at 10 mpk: Abeta 40, rat CSF; for % reduction of rat brain levels at 10 mpk: Abeta 40, rat brain. The source says: In Vivo Inhibition of Beta-Secretase
Several animal models, including mouse, rat, dog, and monkey, may be used to screen for inhibition of beta-secretase activity in vivo following administration of a test compound sample. Animals used in this invention can be wild type, transgenic, or gene knockout animals. For example, the Tg2576 mouse model, prepared and conducted as described in Hsiao et al., 1996, Science 274, 99-102, and other non-transgenic or gene knockout animals are useful to analyze in vivo inhibition of Amyloid beta peptide (Abeta) production in the presence of inhibitory test compounds. Generally, 2 to 18 month old Tg2576 mice, gene knockout mice or non-transgenic animals are administered test compounds formulated in vehicles, such as cyclodextran, phosphate buffers, hydroxypropyl methylcellulose or other suitable vehicles. One to twenty-four hours following the administration of compound, animals are sacrificed, and brains as well as cerebrospinal fluid (CSF) and plasma are removed for analysis of A-beta levels and drug or test compound concentrations (Dovey et al., 2001, Journal of Neurochemistry, 76, 173-181) Beginning at time 0, animals are administered by oral gavage, or other means of delivery such as intravenous injection, an inhibitory test compound of up to 100 mg/kg in a standard, conventional formulation, such as 2% hydroxypropyl methylcellulose, 1% Tween80. A separate group of animals receive 2% hydroxypropyl methylcellulose, 1% Tween80 alone, containing no test compound, and serve as a vehicle-control group. At the end of the test period, animals are sacrificed and brain tissues, plasma or cerebrospinal fluid are collected. Brains are either homogenized in 10 volumes (w/v) of 0.2% diethylamine (DEA) in 50 mM NaCl (Best et al., 2005, Journal of Pharmacology and Experimental Therapeutics, 313, 902-908), or in 10 volumes of 0.5% TritonX-100 in Tris-buffered saline (pH at about 7.6). Homogenates are centrifuged at 355,000 g, 4° C. for 30 minutes. CSF or brain supernatants are then analyzed for the presence of A-beta peptide by specific sandwich ELISA assays based on ECL (Electrochemiluminescence) technology. For example, rat Abeta40 is measured using biotinylated-4G8 (Signet) as a capture antibody and Fab40 (an in-house antibody specific to the C-terminal of Abeta40) as a detection antibody. For example, 4 hours after administration of 30 mg/kg oral dose of the test compound in 2% hydroxypropyl methylcellulose, 1% Tween80 (pH2.2) to 200 g male Sprague Dawley rats, amyloid beta peptide levels are measured for reduction by X % and Y % in cerebrospinal fluid and brain, respectively, when compared to the levels measured in the vehicle-treated rats.
Actual vehicles used: Oral: 2% HPMC, 1% Tween80, pH 2.2
The compounds of the invention may be shown to reduce the formation and/or deposition of amyloid beta peptide in the cerebrospinal fluid (CSF) as well as in the brain of a mouse or rat at either 3 mpk, 10 mpk or 30 mpk (mpk=mg compound per kg weight of the animal) dosing concentrations after 4 hrs.

Data set [2] addresses BACE 1 (beta secretase enzyme) (Homo sapiens, UniProt P56817). Kind of data set: In vitro enzymatic BACE FRET assay. The following applies: average IC50, pH 4.2. The class given is biochemical. As to the method:
In Vitro Enzymatic BACE FRET (Fluorescence Resonance Energy Transfer) Assay
The assay buffer used in this screen is 0.05 M acetate, pH 4.2, 10% DMSO final, 100 uM genapol (which is a nonionic detergent, below its Critical Micelle Concentration). The beta secretase enzyme (0.2 nM) is pre-incubated for one hour with inhibitors, typically in about 1 uL of DMSO according to a serial dilution, are added thereto. This assay is effectively started by the addition of FRET substrate (50 nM) and the combination is incubated for one hour. The FRET assay is terminated with by addition of Tris buffer, which raises the pH to neutrality, and the fluorescence is determined. The FRET substrate is a peptide with commercially available fluorophore and quencher, on opposite sides of the BACE cleavage site. Proteolytic cleavage of the FRET substrate releases quenching of fluorescence (excitation […] and […]).

The next data set addresses T1, Cathepsin D (Homo sapiens, UniProt P07339).
T1 construct: made in house; host or cells: CHO cells
Kind of data set: In vitro enzymatic Cat D (Cathepsin D) FRET assay. In kind it is biochemical. The following applies: average IC50, pH 3.5. Here is the method: In Vitro Enzymatic Cat D (Cathepsin D) FRET (Fluorescence Resonance Energy Transfer) Assay
Recombinant CathepsinD was expressed in CHO cells. The assay buffer for CathepsinD is 0.05 M citrate pH 3.5, 10% DMSO final, 5 mM CHAPS. The CathepsinD enzyme (9 nM) is pre-incubated for one hour with inhibitors, typically in about 1 uL of DMSO according to a serial dilution, is added thereto. The assays are effectively started by the addition of different FRET substrates (20 nM for CathepsinD) and the combination is incubated for one hour. The FRET assay is terminated with by addition of Tris buffer, which raises the pH to neutrality, and the fluorescence is determined. The FRET substrate is a peptide with commercially available fluorophore and quencher, on opposite sides of the BACE cleavage site. The CathepsinD substrate peptide sequence is based on sequence #1 of Table 1 from Gulnik et al. FEBS Letters v413 p 379-384 1997. Proteolytic cleavage of the FRET substrate releases quenching of fluorescence (CathepsinD excitation 500 nm and emission 580 nm). […]

In a further data set the test system is beta amyloid. The following applies: patients in early stages of Alzheimer's Disease; cited from earlier work.
For data set [3] the following is noted: people of the terminated Ph I dosing trial; cited from earlier work.
Data set [4] has as its system pigment epithelium of the rat's eye. The note with it: higher compound dose given for three months; cited from earlier work.

Consider seven compounds from US9725469B2, “Amino-oxazine and amino-dihydrothiazine compounds as beta-secretase modulators and methods of use” (Amgen Inc., priority 2012, dated 2017).

BACE 1 (beta secretase enzyme), sequence (P56817 46-501): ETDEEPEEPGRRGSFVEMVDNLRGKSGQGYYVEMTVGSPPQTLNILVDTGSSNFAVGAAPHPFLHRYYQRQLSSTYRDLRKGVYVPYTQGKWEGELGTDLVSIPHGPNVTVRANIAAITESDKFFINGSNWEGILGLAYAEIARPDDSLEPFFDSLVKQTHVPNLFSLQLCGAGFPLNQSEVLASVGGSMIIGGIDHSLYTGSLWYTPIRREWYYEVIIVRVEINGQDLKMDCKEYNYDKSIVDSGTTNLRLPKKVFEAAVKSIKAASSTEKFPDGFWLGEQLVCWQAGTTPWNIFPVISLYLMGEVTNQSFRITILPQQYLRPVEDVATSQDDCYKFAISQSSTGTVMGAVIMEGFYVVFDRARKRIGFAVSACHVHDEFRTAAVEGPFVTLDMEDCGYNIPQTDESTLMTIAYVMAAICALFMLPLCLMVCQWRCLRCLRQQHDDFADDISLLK
T1 sequence (P07339 65-412, species assumed): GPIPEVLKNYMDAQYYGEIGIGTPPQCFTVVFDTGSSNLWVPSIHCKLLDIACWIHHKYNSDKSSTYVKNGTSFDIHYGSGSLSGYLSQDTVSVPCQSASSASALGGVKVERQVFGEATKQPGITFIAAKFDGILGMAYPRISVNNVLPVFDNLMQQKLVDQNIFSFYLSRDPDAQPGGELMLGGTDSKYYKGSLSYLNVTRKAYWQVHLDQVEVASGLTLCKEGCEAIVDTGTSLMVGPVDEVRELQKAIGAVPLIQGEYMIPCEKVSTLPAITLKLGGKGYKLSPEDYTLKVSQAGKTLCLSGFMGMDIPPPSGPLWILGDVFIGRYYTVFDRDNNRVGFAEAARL

For `COc1cnc2c(Nc3ccc4c(c3)[C@@]3(CCSC(N)=N3)c3cc(C5=CCOCC5)nc(F)c3O4)nccc2c1` [Example 32, (5S)-3-(3,6-dihydro-2H-pyran-4-yl)-1-fluoro-N~7~-(3-methoxy-1,7-naphthyridin-8-yl)-5′,6′-dihydrospiro[chromeno[2,3-c]pyridine-5,4′-[1,3]thiazine]-2′,7-diamine], the IC50 was 3.3 nM in data set [1], 4.4 nM in data set [2] and 373000 nM at Cathepsin D. The “% reduction of rat CSF Abeta 40 levels at 10 mpk” value in the data set on Abeta 40 is given as 71%. Moreover, the “% reduction of rat brain levels at 10 mpk” value in the data set with Abeta 40 is listed as 47%.

`COc1cnc2c(Nc3ccc4c(c3)[C@@]3(CCSC(N)=N3)c3cc(C5=CCCOC5)ncc3O4)nccc2c1` [Example 34, (5S)-3-(5,6-dihydro-2H-pyran-3-yl)-N~7~-(3-methoxy-1,7-naphthyridin-8-yl)-5′,6′-dihydrospiro[chromeno[2,3-c]pyridine-5,4′-[1,3]thiazine]-2′,7-diamine]: the IC50 in data set [1] was determined as 5.4 nM; in data set [2], 13.2 nM; on Cathepsin D it was 336000 nM. In addition, in the data set with Abeta 40, the “% reduction of rat CSF Abeta 40 levels at 10 mpk” value stood at 44%. The “% reduction of rat brain levels at 10 mpk” value in the data set on Abeta 40 worked out at 5%.

For `COc1cnc2c(Nc3ccc4c(c3)[C@@]3(CCOC(N)=N3)c3cc(C(C)C)ncc3O4)nccc2c1` [Example 36, (5S)-N~7~-(3-methoxy-1,7-naphthyridin-8-yl)-3-(1-methylethyl)-5′,6′-dihydrospiro[chromeno[2,3-c]pyridine-5,4′-[l,3]oxazine]-2′,7-diamine], the values for the IC50 (in data set [1]; in data set [2]; on Cathepsin D) were 2.7 nM, 11.3 nM and 133000 nM, respectively. For the same compound, the “% reduction of rat CSF Abeta 40 levels at 10 mpk” value in the data set with Abeta 40 is listed as 58%. For the same compound, in the data set with Abeta 40, the “% reduction of rat brain levels at 10 mpk” value is reported as 19%.

For the compound `COc1cnc2c(Nc3ccc4c(c3)[C@@]3(CCOC(N)=N3)c3cc(C5CC5)ncc3O4)nccc2c1` [Example 38], the IC50 was 2 nM in data set [1], 17.9 nM in data set [2] and 400000 nM on Cathepsin D. Also, the “% reduction of rat CSF Abeta 40 levels at 10 mpk” value in the data set with Abeta 40 was 39%. Moreover, the “% reduction of rat brain levels at 10 mpk” value with Abeta 40 was 25%.

On to “Solanezumab: a monoclonal antibody which targets and binds to the central region of beta amyloid; Phase III clinical molecule”, for which the “slowing of the rate of cognitive decline and memory loss” value with beta amyloid is “approximately 30%”.

On to `C[C@@]1(c2cc(-c3cncnc3)c(F)cc2F)CCSC(N)=N1` [LY 2811376], for which the “eye assessments in people” value in data set [3] is on record as “did not show any abnormalities”. The “eye toxicity finding in rat” value in data set [4] was “damaged the pigment epithelium of the rat's eye”.

For `C=C(C)c1cc2c(cn1)Oc1ccc(Nc3nccc4cc(OC)cnc34)cc1[C@@]21CCOC(N)=N1` [Example 37, (5S)-N~7~-(3-methoxy-1,7-naphthyridin-8-yl)-3-(1-methylethenyl)-5′,6′-dihydrospiro[chromeno[2,3-c]pyridine-5,4′-[l,3]oxazine]-2′,7-diamine], the IC50 in data set [1] was determined as 3.8 nM; in data set [2], 17.8 nM; on Cathepsin D it was 546000 nM. For the same compound, in the data set with Abeta 40, the “% reduction of rat CSF Abeta 40 levels at 10 mpk” value amounted to 38%. The “% reduction of rat brain levels at 10 mpk” value with Abeta 40 worked out at 32%.
